Source: patent publication US20200255478A1, “NOVEL COMPOUNDS ACTIVATING THE NRF2 PATHWAY” (Almirall, S.A., priority 2017, published 2020)
Starred links: 1 amine or outer side, 2 acyl side, 3 side chain; linkers in the order of their positions; H or OH if unused. Positions of bridges follow the written chain, without caps; N, C: chain ends. Non-standard residues stand in square brackets, D forms with d. Residues, ends and D or L forms follow the SMILES beside them. *: point of attachment. X1 = O=C([C@@H]1C[C@H](N[*:3])CN1[*:1])[*:2]; oXylylene = c1ccc(C[*:2])c(C[*:1])c1; Stearoyl = CCCCCCCCCCCCCCCCCC(=O)*

Biological target: Keap1-Maltose Binding Protein (MBP tag) (Homo sapiens, UniProt Q14145)
Sequence (Q14145 whole entry): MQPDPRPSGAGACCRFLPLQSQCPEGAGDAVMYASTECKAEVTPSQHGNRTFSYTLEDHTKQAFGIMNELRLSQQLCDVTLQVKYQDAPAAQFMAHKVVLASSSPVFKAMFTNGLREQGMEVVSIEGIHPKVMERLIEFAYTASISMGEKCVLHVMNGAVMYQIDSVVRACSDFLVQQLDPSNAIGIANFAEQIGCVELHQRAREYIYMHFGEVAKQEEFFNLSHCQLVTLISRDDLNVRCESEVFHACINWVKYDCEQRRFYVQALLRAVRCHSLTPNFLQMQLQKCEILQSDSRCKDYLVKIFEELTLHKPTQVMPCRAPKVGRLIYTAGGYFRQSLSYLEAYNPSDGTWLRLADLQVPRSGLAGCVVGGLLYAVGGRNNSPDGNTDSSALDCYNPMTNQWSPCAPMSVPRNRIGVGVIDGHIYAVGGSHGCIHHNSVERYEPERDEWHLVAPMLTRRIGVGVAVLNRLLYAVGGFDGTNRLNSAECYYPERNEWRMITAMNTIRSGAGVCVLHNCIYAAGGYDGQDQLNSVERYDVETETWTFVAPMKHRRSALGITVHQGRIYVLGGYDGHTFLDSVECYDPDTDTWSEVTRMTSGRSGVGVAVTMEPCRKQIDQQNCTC
Test: Nrf2-Keap1 HTRF (TR-FRET) binding assay: displacement of biotinylated ETGE peptide from Keap1-MBP

## CCCCCCCCCCCCCCCCCC(=O)N[C@H]1C[C@H]2C(=O)N[C@@H](CCC(N)=O)C(=O)N[C@H]3CSCc4ccccc4CSC[C@H](NC(=O)[C@H](CCC(=O)O)NC(=O)CNC(=O)[C@H]([C@@H](C)O)NC(=O)[C@H](CCC(=O)O)NC(=O)[C@@H]4CCCN4C(=O)[C@H](CC(=O)O)NC3=O)C(=O)N[C@@H](CCCCN)C(=O)N3CCC[C@@H]3C(=O)N2C1 [Example 82, {[&^1Pro((4S)-NH-Stearyl)-Gln-Cys(&^2)-Asp-Pro-Glu-Thr-Gly-Glu-Cys(&^3)-Lys-D-Pro&^1][&^2(1,2-phenylenediyl)dimethylene&^3]}] (cyclo(CDPETGECK[dP][X1](Stearoyl)Q); linker 1-8 via oXylylene)
  IC50: 1 to 100 nM
